This note sets out measurements from patent publication US11730712B2, “Functionalized long-chain hydrocarbon mono- and di-carboxylic acids and derivatives thereof, and their use for the prevention or treatment of disease” (ESPERVITA THERAPEUTICS, INC., priority 2021, dated 2023).

“Also recorded” adds a separate entry of the source.

Data set [1] relates to mouse primary hepatocytes. Kind of data set: 14C-acetate incorporation into total lipids in primary mouse hepatocytes. Particulars: Hepatocyte, 4-hour period, read-out: IC50 in μM, inhibition of 14C-acetate incorporation in total lipids. Format: cell-based. How it is done:
After perfusion, collagen digested liver cells were re-suspended in William's E media (11 mM glucose) (Gibco) supplemented with 10% fetal bovine serum (FBS) (Gibco), 2 mM L-glutamine (Gibco) and 1% Antibiotic-Antimycotic (Gibco) mixture and seeded in white opaque 96-well plates. On the following day, the cells were serum-starved for 2 hours, then treated with 0 μM, 0.1 μM, 0.3 μM, 0.5 μM, 1 μM, 3 μM, 10 μM, and 100 μM of Compound I-32, Compound I-1, or Compound III-1 or Reference Compound (e.g., Compounds A-E and bempedoic acid) in the presence of ^14C-Acetate (1 μCi/ml, PerkinElmer). Each of Compound I-32, Compound I-1, Compound III-1, and Reference Compound was solubilized in 100% DMSO to a final concentration of 100 mM stock solution. In the experimental condition, the stock solution was diluted in serum free media (William's E media (11 mM glucose) (Gibco), 2 mM L-glutamine (Gibco) and 1% Anti biotic-Antimycotic) to yield the desired concentration of each compound. […] After 4 hours of treatment, the plates were washed two times with PBS (×1) and 100 μL microscint fluid (Microscint O, part #601361) was added in each well. Plates were wrapped with aluminum foil and were shaken at 250 rpm for 2 h. After 2 h of shaking, ^14C incorporation into lipid was determined by liquid scintillation counting using a TopCount NXT Microplate Scintillation and Luminescence Counter (Perkin Elmer).
The effects of Compound I-32. Compound I-1, and Compound III-1 on mouse primary hepatocyte lipogenesis are represented in Table 1. Each Compound was assayed at a concentration of 0 μM (vehicle control), 0.1 μM, 0.3 μM, 0.5 μM, 1 μM, 3 μM, 10 μM, and 100 μM, unless otherwise noted. Statistically significant inhibition was determined by one-way ANOVA and Dennett's post hoc test where appropriate. […] IC50 values were determined by nonlinear regression. All statistical analyses were carried out using GraphPad Prism 8 software. A p-value of less than or equal 0.05 was considered significant.

In data set [2] the test system is Hepa1-6 murine hepatoma cells. Kind of data set: Cell proliferation assay (presto blue, 72 h). Format: cell-based, mouse. The following applies: for Hepa1-6 cell proliferation compared to control, compound alone: 100 μM; for Hepa1-6 cell proliferation compared to control, compound alone / inhibition of Hepa1-6 cell proliferation in combination with lenvatinib vs each agent alone / inhibition of Hepa 1-6 cell proliferation in combination with regorafenib vs individual effects / inhibition of Hepa1-6 cell proliferation in combination with sorafenib vs each agent alone: 72 h; for IC50: Mus musculus, Hepa1-6, 72 h, read-out: Hepa1-6 (IC50), anti-proliferation activity; for synergism with lenvatinib (CI), Hepa1-6 cells: all tested concentrations: 1 μM and 0.3 μM to 100 μM and 30 μM; for inhibition of Hepa1-6 cell proliferation in combination with lenvatinib vs each agent alone: compound 100 μM + lenvatinib 30 μM; for inhibition of Hepa 1-6 cell proliferation in combination with regorafenib vs individual effects: compound 100 μM + regorafenib 5 μM; for inhibition of Hepa1-6 cell proliferation in combination with sorafenib vs each agent alone: compound 100 μM + sorafenib 5 μM. How it is done: Cell cultures. Hep3B (ATCC) and Hepa1-6 (ATCC) cells were seeded in 96-well plates at a density of 3000 cells/well with complete media. On day 2, media in each well was aspirated and replaced with 100 μl of fresh complete media and cells were treated with or without Compound I-1, Compound I-32, Compound I1-84, and Compound I-85, in a concentration dependent manner. Then, cells were incubated in an incubator for 72 h. On day 5, 10 μl of presto blue (Invitrogen, cat #A13261) cell viability reagent was added in each 96-well plate and incubated at 37° C. for 1-2 h. After incubation, fluorescence was measured with an excitation/emission wavelength of 560/590 nm.
Proliferation assay. Hep3B (ATCC) and Hepa1-6 (ATCC) cells were seeded in 96-well plates at a density of 3000 cells/well with complete media. On day 2, media in each well was aspirated and replaced with 100 μl of fresh complete media and cells were treated with/without testing compounds in a concentration dependent manner. Then, cells were incubated in an incubator for 72 h. On day 5, 10 μl of presto blue (Invitrogen, cat #A13261) cell viability reagent was added in each 96-well plate and incubated at 37° C. for 1-2 h. After incubation, fluorescence was measured with an excitation/emission wavelength of 560/590 nm. Anti-proliferative combination effects of Compound I-1 or Compound I-32 and regorafenib were determined in Hep3B and Hepa1-6 cells. Drug combination interaction was determined by the Chou-Talalay method (23), which is based on well-known equations for different reaction sequences and mechanisms, and different types of inhibition. These equations provide the theoretical basis for the combination index (CI)-isobologram equation that allows quantitative determination of drug interactions, where CI<1, =1, and >1 indicate synergism, additive effect, and antagonism, respectively. CI is calculated based on in vitro measurements implemented in the Compusyn software (www.combosyn.com), a platform for drug combinations pharmacodynamics with automated simulations. The software calculates CI based on the Fractional Inhibition (Fa), which is the potency expressed by the average effect values for each drug concentrations as determined by in vitro experiments. The dose-effect data entries are utilized for automated computerized analysis by the Compusyn software.
Data entered was obtained by in vitro experiments performed as follows: Hep3B or Hepa 1-6 cells were plated in a 96-well format and cell proliferation rates were determined as described above. Cells were treated with 5 doses of each test agent alone at the following concentrations: compounds of the invention dosed at 1, 5, 10, 50, or 100 μM for both Hep3B and Hepa1-6 cells, regorafenib dosed at 0.015, 0.075, 0.15, 0.75, and 1.5 μM for Hep3B cells or 0.05, 0.25, 0.5, 2.5, 5 μM for Hepa 1-6 cells. […]. Data are shown as Fa-CI plots where CI is the combination index and Fa is fractional inhibition. Results were indicated as mean±standard deviation (SD). All bar diagrams and line graphs were prepared using Graph Pad Prism 8 software. Drug synergy was calculated using the CompuSyn software.
Methods: Hep3B cells (supplied by ATCC) and Hepa1-6 cells (supplied by ATCC) were seeded in 96-well plates at a density of 3000 cells/well with complete media. On day 2, the media in each well was aspirated and replaced with 100 μL of fresh complete media, and the cells were treated in a concentration dependent manner with either Compound I-1, Compound I-32, Compound I-84, Compound I-85, sorafenib, lenvatinib, Compound I-1 in combination with sorafenib. Compound I-1 in combination with lenvatinib, Compound I-32 in combination with sorafenib, or Compound I-32 in combination with lenvatinib. The cells were then incubated in an incubator at 37° C. for 72 h. On day 5, 10 μL of presto blue (Invitrogen, cat #A13261) cell viability reagent was added to each 96-well plate and incubated at 37° C. for 1-2 h. […]

Data set [3] relates to female Wistar Han rats. Nature of the data set: 4-day oral gavage toxicity study in female rats. The following applies: for clinical chemistry: globulin concentration and albumin:globulin ratio: 100 mg/kg/day Compound I-1 or 300 mg/kg/day Compound I-1 or Compound I-32; for compound-related effects in hematology or coagulation test results / compound-related mortality, clinical observations, body weight effects, changes in food consumption / dose whose effects were considered nonadverse: female rats, 4 days; for compound-related effects in hematology or coagulation test results / compound-related mortality, clinical observations, body weight effects, changes in food consumption: 100 or 300 mg/kg/day oral gavage; for dose whose effects were considered nonadverse: oral gavage; for microscopic findings in the liver: ≥100 mg/kg/day Compound I-1 or 300 mg/kg/day Compound I-32.

Take `CC(C)(CCCCc1ccc(CCCCC(C)(C)C(=O)O)cc1)C(=O)O` [Compound I-1, 6-[4-(5-carboxy-5-methylhexyl)-phenyl]-2,2-dimethylhexanoic acid]: the IC50 in data set [1] amounted to 0.46 µM. In addition, in data set [2], the “Hepa1-6 cell proliferation compared to control, compound alone” value is “inhibited Hepa1-6 cell proliferation compared to control”; the IC50 is over 100000 nM; the “synergism with lenvatinib (CI), Hepa1-6 cells” value is on record as “synergism”; the “inhibition of Hepa1-6 cell proliferation in combination with lenvatinib vs each agent alone” value is on record as “significantly greater inhibition of Hepa1-6 cell proliferation”. In addition, in data set [2], the “inhibition of Hepa 1-6 cell proliferation in combination with regorafenib vs individual effects” value is “greater inhibition of cell proliferation compared to their individual effects” and the “inhibition of Hepa1-6 cell proliferation in combination with sorafenib vs each agent alone” value is reported as “significantly greater inhibition of Hepa1-6 cell proliferation”. Moreover, in data set [2] (all tested concentrations: 1 μM and 0.05 μM to 100 μM and 5 μM), the “synergism with sorafenib (CI), Hepa1-6 cells” value is listed as “synergism”. In data set [3], the “clinical chemistry: globulin concentration and albumin:globulin ratio” value was “minimally lower globulin concentration and minimally higher albumin:globulin ratio”; the “compound-related effects in hematology or coagulation test results” value was “No Compound I-1- or Compound I-32-related effects in hematology or coagulation test results were identified”; the “compound-related mortality, clinical observations, body weight effects, changes in food consumption” value is “No Compound I-1- or Compound I-32-related mortality, clinical observations, body weight effects, or changes in food consumption were noted”; the “dose whose effects were considered nonadverse” value amounted to 100 mg/kg/day. For the same molecule, in data set [3], the “microscopic findings in the liver” value is listed as “increase in mitoses in hepatocytes”. Besides, the “microscopic findings in the kidney” value in data set [3] (300 mg/kg/day) was “tubular degeneration/necrosis, tubular regeneration, and increased mitoses”.
As for `CC(C)(CCCCc1cccc(CCCCC(C)(C)C(=O)O)c1)C(=O)O` [Compound I-32, 6-[3-(5-carboxy-5-methylhexyl)-phenyl]-2,2-dimethylhexanoic acid], in data set [1], the IC50 was 0.34 µM. In data set [2], the “Hepa1-6 cell proliferation compared to control, compound alone” value was “inhibited Hepa1-6 cell proliferation compared to control”; the IC50 is over 100000 nM; the “synergism with lenvatinib (CI), Hepa1-6 cells” value is “synergism”; the “inhibition of Hepa1-6 cell proliferation in combination with lenvatinib vs each agent alone” value is listed as “significantly greater inhibition of Hepa1-6 cell proliferation”. Moreover, in data set [2], the “inhibition of Hepa 1-6 cell proliferation in combination with regorafenib vs individual effects” value is “greater inhibition of cell proliferation compared to their individual effects” and the “inhibition of Hepa1-6 cell proliferation in combination with sorafenib vs each agent alone” value is listed as “significantly greater inhibition of Hepa1-6 cell proliferation”. Also, the “synergism with sorafenib (CI), Hepa1-6 cells” value in data set [2] (compound and sorafenib: 1 μM and 0.05 μM, 10 μM and 0.25 μM, 50 μM and 2.5 μM, 100 μM and 5 μM) is “significant synergism”. In data set [3], the “clinical chemistry: globulin concentration and albumin:globulin ratio” value is “minimally lower globulin concentration and minimally higher albumin:globulin ratio”; the “compound-related effects in hematology or coagulation test results” value was “No Compound I-1- or Compound I-32-related effects in hematology or coagulation test results were identified”; the “compound-related mortality, clinical observations, body weight effects, changes in food consumption” value was “No Compound I-1- or Compound I-32-related mortality, clinical observations, body weight effects, or changes in food consumption were noted”; the “dose whose effects were considered nonadverse” value turned out to be 300 mg/kg/day. Further, in data set [3], the “microscopic findings in the liver” value was “increase in mitoses in hepatocytes; also recorded: periportal hepatocyte vacuolation”. Besides, the “clinical chemistry: serum urea nitrogen concentration” value in data set [3] (300 mg/kg/day) is listed as “Minimally lower serum urea nitrogen concentration”.
